From PMC7054763, “Sulfonamide-Based Azaheterocyclic Schiff Base Derivatives as Potential Carbonic Anhydrase Inhibitors: Synthesis, Cytotoxicity, and Enzyme Inhibitory Kinetics” (BioMed Research International, 2020) come the findings set out here.

Entries after “also recorded” stand apart in the source; their conditions may differ.

Series [1] addresses T1, carbonic anhydrase (Bos taurus, UniProt P00921).
T1 construct: purchased Sigma-Aldrich
Put plainly: Carbonic anhydrase (CA) assay. In kind it is biochemical. The settings on record: bovine enzyme, p-nitrophenyl acetate substrate, pH 7.6, 25°C; for IC50: read-out: Carbonic anhydrase IC50 ± SEM.

The test system of series [2] is human keratinocyte (HaCaT) cells. Put plainly: Cell viability assay (MTT) using HaCaT. The format is cell-based. Here is the method: (§1) The experiment for cell viability studies using MTT (3-(4,5-dimethylthiazol-2yl)-2,5-diphenyltetrazolium bromide) setup has been done to find cytotoxic effects of target compounds. The human keratinocyte (HaCaT) and MCF-7 were cultivated separately in 96-well plates (CGP, gamma sterilized, SPL Korea) with use of complete DMEM consisting of ten percent fetal bovine serum and one percent antibiotics. 5∗10^4 cells per well were incubated for 24 hours before their exposure to a series of dilutions of target derivatives. The analogue 3c was solubilized in DMSO, and DMEM was used for dilution to achieve final concentrations 0, 125, and 250 μM. Then, in the presence of test compounds, cells were incubated again for twenty-four hours at 37 C with 5% carbon dioxide. Now, through the MTT setup, absorbance values at 570 nm were determined by ELISA reader and each experiment was repeated thrice. All data was shown in a mean ± standard deviation pattern, and Student's t-tests were performed to analyze significance of the data. Statistical significance has been assumed (p < 0.005).

Series [3] relates to MCF-7 cells. The experiment in a line: Cell viability assay (MTT) using MCF-7. The settings on record: MCF-7, 24 h, 0, 125 and 250 μM. The format is cell-based, human. The protocol: as §1
Series [4] has as its target T1, carbonic anhydrase. Put plainly: Kinetic analysis (Lineweaver-Burk) of carbonic anhydrase inhibition. The format is biochemical, bovine. The protocol:
CA inhibition has been determined using some reported methods with a few modifications. […] In brief, 120 microliters of 50 mM Tris-Sulfate buffer (with a pH 7.6 comprising 0.1 mM ZnCl2), twenty μL of (50 U) bovine enzyme, and 20 μL of inhibitor per well makes the reaction mixture. Mixture contents were mixed well before preincubation for ten minutes at 25°C. Para-nitrophenyl acetate substrate (6 mM stock solution by using <5% acetonitrile present in buffer and has been used fresh each time) and forty microliters were taken I each well to reach 0.6 mM concentration per well. The volume of the reaction mixture was diluted to 200 μL. Contents were well mixed after thirty-minute incubation at 25°C, and absorbance results were determined at 348 nm with a microplate reader (SpectraMax ABS, USA). Standard used was acetazolamide. Experiments were performed in triplicate with each concentration. GraphPad Prism 5.0 (GraphPad, San Diego, CA, USA) has been used to calculate IC50 by nonlinear regression. Inhibition (%) = [(B − S)/B] × 100, where S and B are the absorbances of the samples and blank.
To determine the kinetic parameters of compound 3c, a sequence of experiments have been done. Compound 3c was selected on the basis of IC50 value which was used at different concentrations (0.0, 7.1, 14.2, and 28.4 μM, respectively); the substrate (p-nitrophenyl acetate) concentrations were varied (2, 1, 0.5, 0.25, 0.125, and 0.0625 mM). Other all experimental conditions were just similar as described in the carbonic anhydrase assay segment. The maximum initial velocity has been measured using the starting linear part of absorbance values up to ten minutes at a 1-minute interval. Plots of Lineweaver–Burk on graph between inverse of velocities (1/V) and inverse of concentration of substrate 1/[S] mM^−1 were used in order to find enzyme inhibition type. EI dissociation constant Ki was found by the secondary plot of concentrations of inhibitors versus 1/V.

T1 sequence (P00921 whole entry): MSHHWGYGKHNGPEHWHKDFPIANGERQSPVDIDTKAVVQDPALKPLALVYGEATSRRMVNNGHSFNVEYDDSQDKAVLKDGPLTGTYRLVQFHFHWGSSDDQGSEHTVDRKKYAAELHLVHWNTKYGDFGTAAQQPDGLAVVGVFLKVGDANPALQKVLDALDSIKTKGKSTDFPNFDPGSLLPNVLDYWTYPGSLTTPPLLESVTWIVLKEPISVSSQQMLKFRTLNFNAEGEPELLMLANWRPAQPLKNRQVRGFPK

Consider `Cc1ccc(S(=O)(=O)N/N=C/c2ccccn2)cc1` [Compound 3g, (E)-4-methyl-N′-(pyridin-2-ylmethylene)benzenesulfonohydrazide], for which the melting point was 159 to 161 °C. Also, the IC50 in series [1] stood at 59.1 ± 1.68 µM.
For `COc1ccc(S(=O)(=O)N/N=C/c2cc[nH]c2)cc1` [Compound 3j, (E)-N′-((1H-pyrrol-3-yl)methylene)-4-methoxybenzenesulfonohydrazide], the melting point fell in the range of 176 to 179 °C. For the same compound, the “Carbonic anhydrase IC50 ± SEM” value in series [1] is on record as “No inhibition”.
Regarding `CC(=O)Nc1ccc(S(=O)(=O)N/N=C/c2cccnc2)cc1` [Compound 3d, (E)-N-(4-((2-(pyridin-3-ylmethylene)hydrazinyl)sulfonyl)phenyl)acetamide], the melting point lay within 181 to 184 °C. The “Carbonic anhydrase IC50 ± SEM” value in series [1] is “No inhibition”.
The matching figures for `O=S(=O)(N/N=C/c1cccnc1)c1ccccc1` [Compound 3a, (E)-N′-(pyridin-3-ylmethylene)benzenesulfonohydrazide]: 176 to 178 °C and “No inhibition”.
`Cc1ccc(S(=O)(=O)N/N=C/c2ccncc2)cc1` [Compound 3f, (E)-4-methyl-N′-(pyridin-4-ylmethylene)benzenesulfonohydrazide] registered a melting point of 148 to 152 °C. The “Carbonic anhydrase IC50 ± SEM” value in series [1] is listed as “No inhibition”.
In turn, `O=S(=O)(N/N=C/c1ccc[nH]1)c1ccccc1` [Compound 3h, (E)-N′-((1H-pyrrol-2-yl)methylene)benzenesulfonohydrazide] yielded a melting point of 156 to 158 °C. For the same compound, the concentration for half-maximal inhibition (IC50) in series [1] amounted to 31.8 ± 1.07 µM.
Consider `Cc1cc(C)c(S(=O)(=O)N/N=C/c2ccncc2)c(C)c1` [Compound 3e, (E)-2,4,6-trimethyl-N′-(pyridin-4-ylmethylene)benzenesulfonohydrazide], for which the melting point is 160 to 164 °C. In addition, the IC50 in series [1] came to 18.9 ± 0.85 µM.
As to `Cc1cc(C)c(S(=O)(=O)N/N=C/c2cccnc2)c(C)c1` [Compound 3b, (E)-2,4,6-trimethyl-N′-(pyridin-3-ylmethylene)benzenesulfonohydrazide], the melting point fell in the range of 173 to 176 °C. Besides, in series [1], the “Carbonic anhydrase IC50 ± SEM” value is given as “No inhibition”.
The compound `Cc1ccc(S(=O)(=O)N/N=C/c2ccc[nH]2)cc1` [Compound 3i, (E)-N′-((1H-pyrrol-2-yl)methylene)-4-methylbenzenesulfonohydrazide] showed a melting point of 146 to 148 °C. Moreover, the “Carbonic anhydrase IC50 ± SEM” value in series [1] was “No inhibition”.
`Cc1ccc(S(=O)(=O)N/N=C/c2cccnc2)cc1` [Compound 3c, (E)-4-methyl-N′-(pyridin-3-ylmethylene)benzenesulfonohydrazide] registered a melting point of 168 to 171 °C. The IC50 in series [1] was 0.84 ± 0.12 µM. Moreover, the “Cytotoxic effects, HaCaT compared with MCF-7” value in series [2] (HaCaT versus MCF-7, 250 μM) is on record as “smaller in case of human keratinocyte (HaCaT) at concentration 250 μM than MCF-7; also recorded: less cytotoxic effects on human keratinocyte cell lines (HaCaT) compared to breast cancer cell lines MCF-7”. In addition, in series [2] (HaCaT, 24 h, 0, 125 and 250 μM), the “Cytotoxicity (cell viability)” value is “caused cytotoxicity in a concentration-dependent manner”. Further, the “Cytotoxicity (cell viability)” value in series [3] is given as “caused cytotoxicity in a concentration-dependent manner”. For the same compound, in series [4] (3c 7.1 μM), the Vmax was 0.01006 ΔA/min. The Vmax in series [4] (3c 14.2 μM) was 0.004552 ΔA/min. Moreover, in series [4] (3c 28.4 μM), the Vmax is reported as 0.002293 ΔA/min. Also, the Inhibition type result in series [4] (Lineweaver-Burk plots) was “noncompetitive mode of inhibition; also recorded: noncompetitively”. In addition, the Ki in series [4] (secondary plot of Lineweaver-Burk slope versus 3c concentration, read-out: Ki (EI dissociation constant)) was 8.6 µM.

One may read the IC50 as the concentration that inhibits the measured activity by half. The melting point is the temperature, or range, at which the solid turns liquid. Usually Ki stands for a measure of affinity in units of concentration, obtained from inhibition or displacement.
